The values below come from ChEMBL document CHEMBL3875185, “Structure-anticonvulsant activity studies in the group of (E)-N-cinnamoyl aminoalkanols derivatives monosubstituted in phenyl ring with 4-Cl, 4-CH3 or 2-CH3” (Bioorg Med Chem, 2017).

Series [1] has as its system Mus musculus. Kind of series: Neurotoxicity in mouse assessed as induction of motor impairment at 30 mg/kg, ip measured at 0.5 hrs post dose by rotarod method. The class given is toxicity, organism-based. The conditions noted are these: in vivo.
Series [2] has as its system Mus musculus. Kind of series: Anticonvulsant activity in 6-Hz induced seizure mouse model assessed as restoration of normal activity within 10 secs from stimulation at 100 mg/kg, ip at 32 mA measured at 0.5 hrs post dose. The class given is functional, organism-based.
The test system of the next series is Rattus norvegicus. Kind of series: Neurotoxicity in ip dosed Sprague-Dawley rat assessed as behavioral change by measuring time to peak effect. In kind it is toxicity, organism-based. As to conditions: in vivo.
Series [3] is described as follows: Neurotoxicity in ip dosed Sprague-Dawley rat assessed as behavioral change. The conditions noted are these: in vivo. The class given is toxicity, organism-based.
Series [4] has as its target Translocator protein (Rattus norvegicus) (UniProt P16257). Kind of series: Displacement of [3H]PK 11195 from rat heart peripheral-type benzodiazepine receptor at 100 uM measured after 15 mins by scintillation counting method relative to control.
For series [5], the target named is T1, Endothelin-1 receptor (Homo sapiens) (UniProt P25101).
T1 sequence (whole entry): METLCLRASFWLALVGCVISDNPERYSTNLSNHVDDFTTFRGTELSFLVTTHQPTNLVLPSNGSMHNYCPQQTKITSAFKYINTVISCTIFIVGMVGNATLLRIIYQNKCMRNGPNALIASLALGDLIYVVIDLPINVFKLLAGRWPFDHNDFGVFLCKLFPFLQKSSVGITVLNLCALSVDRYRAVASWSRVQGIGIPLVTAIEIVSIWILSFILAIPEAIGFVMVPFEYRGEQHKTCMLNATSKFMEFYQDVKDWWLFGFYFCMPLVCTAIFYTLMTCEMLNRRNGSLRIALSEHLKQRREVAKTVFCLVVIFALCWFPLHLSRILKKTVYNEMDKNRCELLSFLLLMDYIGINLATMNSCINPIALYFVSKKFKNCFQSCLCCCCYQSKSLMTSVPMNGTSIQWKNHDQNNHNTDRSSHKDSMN
Kind of series: Displacement of [125I]endothelin-1 from human recombinant ETA receptor expressed in CHO cells at 100 uM measured after 120 mins by scintillation counting method relative to control. The class given is cell-based. A general note: Displacement assays read how much labelled ligand stays bound in the presence of the test substance.

In series [6] the target is T2, C-C chemokine receptor type 1 (Homo sapiens) (UniProt P32246).
T2 sequence (whole entry): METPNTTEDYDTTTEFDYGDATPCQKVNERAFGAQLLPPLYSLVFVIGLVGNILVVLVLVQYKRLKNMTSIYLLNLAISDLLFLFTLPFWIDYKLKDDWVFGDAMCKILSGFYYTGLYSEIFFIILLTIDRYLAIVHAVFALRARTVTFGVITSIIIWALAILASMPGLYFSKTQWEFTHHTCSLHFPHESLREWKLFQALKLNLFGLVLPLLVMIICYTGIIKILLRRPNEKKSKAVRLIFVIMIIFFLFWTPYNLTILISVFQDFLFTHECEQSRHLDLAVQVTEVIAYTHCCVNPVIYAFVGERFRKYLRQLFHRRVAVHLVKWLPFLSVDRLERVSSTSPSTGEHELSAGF
As to the kind of experiment: Displacement of [125I]MIP-1a from human recombinant CCR1 receptor expressed in HEK293 cells at 100 uM measured after 120 mins by scintillation counting method relative to control. In kind it is cell-based.

Series [7] addresses Melanocortin receptor 4 (Homo sapiens) (UniProt P32245). Kind of series: Displacement of [125I]NDP-a-MSH from human recombinant MC4 receptor expressed in CHO cells at 100 uM measured after 120 mins by scintillation counting method relative to control. The class given is cell-based.
Series [8] concerns the target Muscarinic acetylcholine receptor M3 (Homo sapiens) (UniProt P20309). As to the kind of experiment: Displacement of [3H]4-DAMP from human recombinant M3 receptor expressed in CHO cells at 100 uM measured after 60 mins by scintillation counting method relative to control. The class given is cell-based.
The target of series [9] is T3, Muscarinic acetylcholine receptor M5 (Homo sapiens) (UniProt P08912).
T3 sequence (whole entry): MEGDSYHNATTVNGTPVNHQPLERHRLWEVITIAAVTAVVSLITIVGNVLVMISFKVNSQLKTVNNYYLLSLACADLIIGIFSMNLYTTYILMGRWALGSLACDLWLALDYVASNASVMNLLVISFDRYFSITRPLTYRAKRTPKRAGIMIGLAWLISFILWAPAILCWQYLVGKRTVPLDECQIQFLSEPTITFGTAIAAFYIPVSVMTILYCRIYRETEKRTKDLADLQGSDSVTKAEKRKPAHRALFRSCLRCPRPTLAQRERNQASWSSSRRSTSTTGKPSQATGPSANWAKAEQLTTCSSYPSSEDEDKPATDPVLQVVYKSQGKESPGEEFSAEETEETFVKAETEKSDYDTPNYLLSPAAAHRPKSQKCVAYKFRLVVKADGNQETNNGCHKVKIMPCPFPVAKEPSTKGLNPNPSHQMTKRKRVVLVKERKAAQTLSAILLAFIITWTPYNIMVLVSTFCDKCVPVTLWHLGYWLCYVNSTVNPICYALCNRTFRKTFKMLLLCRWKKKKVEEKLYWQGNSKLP
Kind of series: Displacement of [3H]4-DAMP from human recombinant M5 receptor expressed in CHO cells at 100 uM measured after 60 mins by scintillation counting method relative to control. The class given is cell-based.

Series [10] addresses Delta-type opioid receptor (Homo sapiens) (UniProt P41143). As to the kind of experiment: Displacement of [3H]DADLE from human recombinant delta opioid receptor expressed in CHO cells at 100 uM measured after 120 mins by scintillation counting method relative to control. In kind it is cell-based.
Series [11] addresses Prostaglandin E2 receptor EP4 subtype (Homo sapiens) (UniProt P35408). As to the kind of experiment: Displacement of [3H]PGE2 from human recombinant EP4 receptor expressed in HEK293 cells at 100 uM measured after 120 mins by scintillation counting method relative to control. In kind it is cell-based.
In series [12] the target is 5-hydroxytryptamine receptor 5A (Homo sapiens) (UniProt P47898). As to the kind of experiment: Displacement of [3H]LSD from human recombinant 5HT5A receptor expressed in HEK293 cells at 100 uM measured after 120 mins by scintillation counting method relative to control. In kind it is cell-based.
Sequence of 5-hydroxytryptamine receptor 5A (Homo sapiens) (P47898 whole entry): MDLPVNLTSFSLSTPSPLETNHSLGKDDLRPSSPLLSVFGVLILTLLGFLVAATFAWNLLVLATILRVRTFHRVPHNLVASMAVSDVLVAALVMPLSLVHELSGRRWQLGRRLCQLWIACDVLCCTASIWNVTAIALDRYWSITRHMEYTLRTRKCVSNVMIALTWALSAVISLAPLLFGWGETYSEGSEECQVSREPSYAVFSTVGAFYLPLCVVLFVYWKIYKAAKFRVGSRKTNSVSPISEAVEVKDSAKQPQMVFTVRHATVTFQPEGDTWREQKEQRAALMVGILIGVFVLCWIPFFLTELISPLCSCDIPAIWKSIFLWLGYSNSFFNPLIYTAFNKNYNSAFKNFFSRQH
Series [13] addresses T4, Vasoactive intestinal polypeptide receptor 1 (Homo sapiens) (UniProt P32241).
T4 sequence (whole entry): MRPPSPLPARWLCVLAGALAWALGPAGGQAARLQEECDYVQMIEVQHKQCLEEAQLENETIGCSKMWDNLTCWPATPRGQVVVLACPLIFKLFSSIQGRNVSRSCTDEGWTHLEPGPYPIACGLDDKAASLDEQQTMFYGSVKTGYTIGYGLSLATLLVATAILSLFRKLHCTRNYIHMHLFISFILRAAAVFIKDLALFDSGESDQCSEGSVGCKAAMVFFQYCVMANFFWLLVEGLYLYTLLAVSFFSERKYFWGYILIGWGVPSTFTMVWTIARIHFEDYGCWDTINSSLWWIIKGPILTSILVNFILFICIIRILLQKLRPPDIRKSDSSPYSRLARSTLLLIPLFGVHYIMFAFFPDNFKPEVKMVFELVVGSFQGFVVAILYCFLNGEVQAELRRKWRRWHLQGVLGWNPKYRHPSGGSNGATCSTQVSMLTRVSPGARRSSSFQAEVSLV
Kind of series: Displacement of [125I]VIP from human recombinant VPAC1 receptor expressed in CHO cells at 100 uM measured after 60 mins by scintillation counting method relative to control. The class given is cell-based.

The source made the active and inactive calls. No cut-off for these calls is given here.

Sequence of Prostaglandin E2 receptor EP4 subtype (Homo sapiens) (P35408 whole entry): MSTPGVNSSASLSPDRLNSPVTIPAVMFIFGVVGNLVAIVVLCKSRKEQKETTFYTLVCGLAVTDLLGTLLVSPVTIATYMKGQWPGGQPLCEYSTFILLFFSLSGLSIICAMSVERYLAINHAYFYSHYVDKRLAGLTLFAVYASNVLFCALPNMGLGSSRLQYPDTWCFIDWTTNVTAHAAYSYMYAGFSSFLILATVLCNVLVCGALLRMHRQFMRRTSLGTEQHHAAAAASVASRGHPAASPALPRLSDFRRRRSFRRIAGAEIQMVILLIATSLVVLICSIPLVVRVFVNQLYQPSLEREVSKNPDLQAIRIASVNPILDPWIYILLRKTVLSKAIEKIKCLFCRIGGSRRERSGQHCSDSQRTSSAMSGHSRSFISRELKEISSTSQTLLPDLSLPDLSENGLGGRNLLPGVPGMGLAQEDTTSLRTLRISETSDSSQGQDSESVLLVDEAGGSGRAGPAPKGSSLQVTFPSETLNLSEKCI
Sequence of Muscarinic acetylcholine receptor M3 (Homo sapiens) (P20309 whole entry, looked up): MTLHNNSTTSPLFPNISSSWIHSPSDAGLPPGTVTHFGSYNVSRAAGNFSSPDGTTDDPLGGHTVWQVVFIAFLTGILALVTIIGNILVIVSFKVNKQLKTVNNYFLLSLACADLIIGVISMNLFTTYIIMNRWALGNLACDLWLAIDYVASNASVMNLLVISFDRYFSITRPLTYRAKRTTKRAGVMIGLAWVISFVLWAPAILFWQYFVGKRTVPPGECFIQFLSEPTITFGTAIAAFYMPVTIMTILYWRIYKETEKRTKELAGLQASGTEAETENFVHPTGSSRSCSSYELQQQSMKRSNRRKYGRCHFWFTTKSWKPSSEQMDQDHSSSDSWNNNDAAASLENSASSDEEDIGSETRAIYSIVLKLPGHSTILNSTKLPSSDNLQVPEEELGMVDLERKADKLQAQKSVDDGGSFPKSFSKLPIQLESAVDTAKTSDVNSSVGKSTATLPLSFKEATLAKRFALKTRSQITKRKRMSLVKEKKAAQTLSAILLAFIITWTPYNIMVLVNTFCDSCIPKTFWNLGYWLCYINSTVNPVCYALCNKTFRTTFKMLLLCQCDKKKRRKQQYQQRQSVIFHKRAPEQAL
Sequence of Translocator protein (Rattus norvegicus) (P16257 whole entry, looked up): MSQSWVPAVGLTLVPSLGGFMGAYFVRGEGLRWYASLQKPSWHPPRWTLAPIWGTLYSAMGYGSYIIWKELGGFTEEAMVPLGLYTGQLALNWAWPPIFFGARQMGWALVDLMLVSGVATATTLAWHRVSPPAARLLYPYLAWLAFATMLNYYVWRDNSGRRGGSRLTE
Sequence of Delta-type opioid receptor (Homo sapiens) (P41143 whole entry): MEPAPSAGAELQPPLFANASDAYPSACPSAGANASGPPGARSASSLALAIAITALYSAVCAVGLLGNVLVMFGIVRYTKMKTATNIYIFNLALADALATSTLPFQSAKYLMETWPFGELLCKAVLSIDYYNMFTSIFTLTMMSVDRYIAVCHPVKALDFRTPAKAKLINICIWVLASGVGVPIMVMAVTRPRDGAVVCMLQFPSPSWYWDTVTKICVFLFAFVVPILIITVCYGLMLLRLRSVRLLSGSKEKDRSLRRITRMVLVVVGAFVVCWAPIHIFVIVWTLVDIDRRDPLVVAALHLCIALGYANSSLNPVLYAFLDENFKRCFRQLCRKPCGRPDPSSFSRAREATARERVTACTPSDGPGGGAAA
Sequence of Melanocortin receptor 4 (Homo sapiens) (P32245 whole entry): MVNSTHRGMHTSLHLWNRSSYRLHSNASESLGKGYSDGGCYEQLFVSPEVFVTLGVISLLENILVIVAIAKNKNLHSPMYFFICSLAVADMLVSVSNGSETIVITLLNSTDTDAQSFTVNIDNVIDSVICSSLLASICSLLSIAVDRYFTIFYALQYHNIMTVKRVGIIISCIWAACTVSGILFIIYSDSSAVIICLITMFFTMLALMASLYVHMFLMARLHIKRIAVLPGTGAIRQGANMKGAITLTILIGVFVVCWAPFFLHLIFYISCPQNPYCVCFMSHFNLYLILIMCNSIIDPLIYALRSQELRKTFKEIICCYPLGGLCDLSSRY

With `Cc1ccccc1/C=C/C(=O)N[C@@H](C)CO`, the Activity entry in the series with Mus musculus [1] is “Non-Toxic”. In addition, the outcome in the series on Mus musculus [2] was Active. In the series with Rattus norvegicus, the Time was found to be 0.5 h. For the same molecule, in series [3], the TD50 – broadly, the 50% point of the dose-response relation for the toxic effect studied – stood at 103 mg/kg. In addition, the inhibition (usually the change of the read-out against control, counted positive when it falls) in series [4] is 75.8%; in series [5] it was -1%; in series [6], -3.7%; in series [7] it was 7.9%; in series [8], -2%; in [9], -7.5%. Further, the inhibition in [10] is 3%; in series [11], 16.7%; in series [12] it was 17.4%; in [13] it was 2%.

Consider `CC(O)CNC(=O)/C=C/c1ccc(Cl)cc1` (configuration not stated), for which the Activity result in the series with Mus musculus [1] was “Non-Toxic”. Moreover, the outcome in the series with Mus musculus [2] was Active. Also, in the series with Rattus norvegicus, the Time came to 0.5 h. In [3], the TD50 stood at 69.8 mg/kg. In addition, the inhibition in series [4] is 8.1%; in series [5] it was 9.3%; in series [6], -2%; in [7], 0.9%; in series [8], 2.9%; in series [9] it was -5.9%. The inhibition in series [10] was 3.2%; in series [11] it was 23.6%; in series [12], 19%; in [13], -0.4%.

Consider `CCC(CO)NC(=O)/C=C/c1ccc(Cl)cc1` (configuration not stated), for which, in the series with Mus musculus [1], the Activity entry is on record as “Non-Toxic”. The result with Mus musculus [2] was Active. Further, the Time with Rattus norvegicus was determined as 1 h. For the same molecule, in [3], the TD50 worked out at 79.5 mg/kg. Moreover, the inhibition in series [4] was 53%; in series [5], 0.3%; in series [6], -2.2%; in [7], -3.1%; in series [8], 1.5%; in series [9] it was -9.2%. The inhibition is 6% in series [10], 29.7% in [11], 18.7% in series [12] and 4.8% in [13].
